What was measured:
[1] = system: K562 cells; assay: Nude mice implanted with K562 cells: spleenic enlargement, Crk expression, leukemia growth index; assay type: in vivo
Text: Mice were sacrificed after a decrease in percent leukemia growth index (LGI) was observed and spleen harvested.
Control mice also developed random subcutaneous tumors showing Crk expression, indicative of the presence of K562 cells.

[2] = system: Baf3 murine leukemia cells T315I; assay: Blast cell count in nude mice implanted with Baf3 T315I cells; assay type: in vivo; settings: Baf3T315I; Imatinib 10 mg/kg, AN019 20 mg/kg, AN024 20 mg/kg, oral gavage or ip from day 15; day 42
Text: Blood smears were obtained via the tail vein or via the femoral vein every 6th day and blast cells counted and graphically represented.
Abdominal swelling and decrease in activity was monitored daily, blood smear taken via the tail vein or the femoral vein every 6th day and H&E stained as per standard protocols. 42 days after implantation, mice were sacrificed and spleens harvested.
Blood from tail vein or the femoral vein was taken every 6th day from Baf3 cell implanted mice until day 42.
Nude mice were intraperitoneally implanted with Baf3 mutant cells (wt, T315I, M351T or E255K). […] Blood was drawn from the femoral vein or tail vein every 6th day and blast cell count determined and graphically represented.

[3] = system: AKT, ERK and Pi3k in ZR71 breast cancer cells; assay: Western blot analysis, ZR71; assay type: cell-based; settings: 24 h
Method: (§1) Western blot analysis of 4910, 5310 and U87 glioma cells and MDAMB231 and ZR71 breast cancer cells in the presence of specified concentrations of compounds were assessed as per standard protocols. Cells were treated with AN019, AN024 or Temozolomide at the specified concentrations. 24 h after treatment, cells were collected and cell lysates extracted. Equal quantities of proteins were fractionated by SDS-PAGE. The fractionated proteins were blotted on to nylon membranes and immunoprobed for AKT, ERK and Pi3k. Breast cancer cell protein isolates were additionally immunoprobed for EGFR, ErbB1, ErbB2 and ErbB3.

[4] = system: K562 luciferase expressing cells; assay: Leukemic survival study; assay type: in vivo, nude mice
Text: K562 luciferase expressing cells were implanted intraperitoneally into nude mice; the mice were scanned using the xenogeny IVIS image station after ip injections of luciferin does determine implantations. Drug treatment was started as in previous studies day 15 after implantation. The animals were given treatment till day 42, after which drug treatment was stopped and survival of the animals determined as per the animal care regulations. […] Drug treatment was withdrawn on day 42 post implantation and survival of animals determined.

[5] = system: U87 glioma cells; assay: In vitro angiogenic assay, U87 conditioned media on human dermal endothelial cells; assay type: cell-based; settings: with radiation
Method: The in vitro angiogenesis of 4910, 5310 and U87 glioma cells and MDAMB231 and ZR71 breast cancer cells in the presence of specified concentrations of compounds were determined as follows, cells (2×10^4/well) were seeded in 8-well chamber slides and were treated with various concentrations of test compounds. After a 24 h incubation period, the conditioned media was removed and added to a 4×10^4 human dermal endothelial cell (monolayer in 8-well chamber slides) and the human dermal endothelial cells were allowed to grow for 72 h. Cells were then fixed in 3.7% formaldehyde and stained with H&E and photographed.

[6] = system: AKT, ERK and Pi3k in 4910 glioma cells; assay: Western blot analysis, 4910; assay type: cell-based, human; settings: 24 h
Method: as §1

Cc1ccc(NC(=O)c2cccc(S(=O)(=O)C(F)(F)F)c2)cc1Nc1nccc(-c2cccnc2)n1 [AN024, (3-trifluoromethylsulfonyl)-N-[4-methyl-3-(4-pyridin-3yl-pyrimidin-2ylamino)-phenyl]-benzamide]
leukemia growth index (LGI) ([1]; K562 implanted nude mice): caused the regression of LGI
Crk expression in paraffin sections of spleen ([1]; immuno-probed spleen sections): only basal level expression of Crk expression comparable to negative control
Spleenic enlargement ([1]; ip injections, visual inspection of harvested spleen): did not show any spleenic enlargement
physiological, phenotypic or behavioral abnormality ([1]; treated K562 implanted nude mice): no abnormal physiological, phenotypic or behavioral abnormality
blast cell count in blood smears [2]: significant decrease in blast cell count
AKT levels ([3]; ZR71, after radiation): decrease in AKT expression
PI3k levels ([3]; ZR71, with radiation): decrease in PI3k levels
AKT levels ([3]; ZR71, without radiation): did not show any significant change
blast cell count from blood smears after withdrawal of drug treatment ([4]; drug treatment withdrawn on day 42 (FIG. 6C)): showed effectiveness after withdrawal of drug treatment
animals showing no signs of leukemia / complete absence of leukemic symptoms ([4]; of 10 animals, treatment day 15 to day 42, then withdrawn, AN024 read on day 55): 8 animals
mortality (day post implantation) ([4]; treatment day 15 to day 42, then withdrawn): 38 days
inhibition of angiogenesis [5]: increase in inhibition after radiation
AKT levels ([6]; 4910, after radiation): decrease in AKT levels was enhanced after radiation
AKT levels ([6]; 4910, without radiation): decrease in AKT levels
